We go through 1 molecule from patent US12384744B2, “Enzyme-cleavable methadone prodrugs and methods of use thereof” (Ensysce Biosciences Inc., priority 2021, dated 2025).

The test system of this assay is trypsin. Nature of the assay: Digestion with trypsin (trypsin digestion of methadone prodrugs and release of methadone). The format is biochemical. The method, then:
FIG. 6 depicts an example of trypsin digestion of methadone prodrugs according to certain embodiments. All pro-drugs are digested fully within 8-24 h. The pro-drug with 1-methylethyl linker is slightly slower, requiring 24-48 h.

As to `CC=C(OC(=O)N(C)C(C)CNC(=O)[C@H](CCCNC(=N)N)NC(=O)c1ccccc1)C(CC(C)N(C)C)(c1ccccc1)c1ccccc1` (stereo partly drawn) [pro-drug with 1-methylethyl linker, 6-(dimethylamino)-4,4-diphenylhept-2-en-3-yl (1-((S)-2-benzamido-5-guanidinopentanamido)propan-2-yl)(methyl)carbamate], for the setting “FIG. 6”, the “time until pro-drug is digested fully by trypsin” value lay in the range of 24 to 48 h. Moreover, where the note is “FIG. 6 and FIGS. 7A-7D, result in words”, the “release of methadone from the release intermediate after trypsin digestion” value is “rapid release to methadone”.
